≈ marks a conversion by molar mass, not a printed value. Where a SMILES comes first, the peptide text is derived from it. The star is where a group is joined. NHtBu = CC(C)(C)N*
| Compound | logP | solubility |
| --- | --- | --- |
| O=C(O)CNC(=O)c1ccccc1I | 0.97 |  |
| CNc1ncnc2c1ncn2C1OC(CO)CC1F (centres undefined) | 0.27 |  |
| CC(=NN=C(N)N)c1cccs1 | 1.05 |  |
| NC(=O)CN1CCCC1=O | -1.54 |  |
| N#CC(C#N)=Cc1ccco1 | 1.4 |  |
| CCN1CCCC1=O | -0.04 |  |
| CN(C)P(=O)(N(C)C)N1CCCC1 | 0.82 |  |
| Cc1sc(C(=O)Nc2nnn[nH]2)c(OC(C)C)c1Br | 1.72 |  |
| NC(=O)CC[C@H](N)C(=O)O | -3.64 |  |
| CCCCCCCOC(=O)c1ccc(N)cc1 | 4.5 |  |
| CCCCSP(=O)(SCCCC)SCCCC | 5.7 |  |
| CN(C(=O)C(Cl)Cl)c1ccc(OC(=O)c2ccco2)cc1 | 2.24 |  |
| CC1=CC(=O)CC(C)(C)C1 | 1.7 |  |
| S=C1NCCN1 | -0.66 |  |
| Clc1cc(Cl)c2cc(Cl)cc(Cl)c2c1 | 6.19 |  |
| CC1=CCC2CC1C2(C)C (centres undefined) | 4.83 |  |
| CC(C)COCC(C)C | 2.78 |  |
| CN(C)c1ncc(-c2ccncc2)cc1C#N | 2.13 |  |
| C=CCOc1ccccc1OCC(CNC(C)C)OC(=O)CCC (centres undefined) | 3.95 |  |
| CCO[C@H]1O[C@@H]2OC3(C)CC[C@H]4[C@H](C)CC[C@@H]([C@H]1C)[C@@]24OO3 | 3.89 |  |
| OCCOCCOCCO | -1.75 |  |
| ClC(Cl)(Cl)c1nc(NCc2ccccc2)nc(C(Cl)(Cl)Cl)n1 | 4.93 |  |
| C[Si](C)(C)O[Si](C)(C)O[Si](C)(C)C | 6.6 |  |
| COc1ccc(C(N)=S)cc1 | 1.63 |  |
| CCCCCCCCCC1(CC)C(=O)NC(=O)NC1=O | 4 |  |
| COC(=O)C1CCN1CC(O)Cn1ccnc1 (centres undefined) | -0.29 |  |

| Compound | logP | solubility |
| --- | --- | --- |
| OCC(CO)(CO)CO | -1.69 |  |
| N#CCCCCCCC#N | 0.59 |  |
| c1ccc2nc3ccc4ccccc4c3cc2c1 | 4.48 |  |
| Clc1ccc(Cl)c(NC2=NCCN2)c1Cl | 2.46 |  |
| CCOC(=O)n1c(-c2cscn2)nc2ccccc21 | 2.51 |  |
| N#CCCN(N)c1nc2ccccc2o1 | 0.9 |  |
| COC(=O)CCC(=O)OC |  | 171 mM (≈ 25 mg/mL) |
| COc1ccc(N)c(S(=O)(=O)O)c1 | -3.49 |  |
| Brc1cc(Br)c(Oc2c(Br)c(Br)c(Br)c(Br)c2Br)cc1Br | 8.71 |  |
| O=C1CCC(c2cccnc2)N1 (centres undefined) | -0.3 |  |
| CN1C(=O)CC[C@H]1c1cccnc1 | 0.07 |  |
| Cc1ccc(C(=O)CS(=O)(=O)c2ccc(C)cc2)cc1 | 3.3 |  |
| Nc1ncnc2c1ncn2Cc1ccccc1 | 1.7 |  |
| C=CCOc1ccccc1OCC(CNC(C)C)OC(=O)CC (centres undefined) | 3.76 |  |
| c1ccc2nc3c4ccccc4c4ccccc4c3cc2c1 | 5.66 |  |
| NS(=O)(=O)c1nn2c(=Nc3cccc(F)c3)snc2s1 | 3.06 |  |
| CC(=O)Oc1ccc(CC(N)C(=O)O)cc1 (centres undefined) | -1.33 |  |
| CC(CCC(=O)NCC(=O)O)C1CCC2C3CCC4CC(O)CCC4(C)C3CC(O)C12C (centres undefined) | 2.25 |  |
| C=CCOc1ccccc1OCC(CNC(C)C)OC(=O)CCCC (centres undefined) | 4 |  |
| CCCCCCCCCCCCCCCCCCCCCC(=O)O |  | 4.7e-05 mM (≈ 1.6e-05 mg/mL) |
| C=COCCn1cnc2c(=N)n(C)c(=O)[nH]c21 | -0.24 |  |
| [O-][n+]1ccc(Cl)c2ccc(Cl)cc21 | 1.85 |  |
| Nc1ncc2ncn(COCCO)c2n1 | -1.08 |  |
| CCn1cc(C(=O)NC(C(=O)OC)C(C)C)c(=O)c2ccc(C)nc21 (centres undefined) | 3.61 |  |
| O=C1CCCC1 | 0.38 |  |
| NC(=O)c1ccc(N)nc1 | 0.7 |  |

| Compound | logP | solubility |
| --- | --- | --- |
| CCc1c(C(=O)O)c(=O)cnn1-c1ccc(Cl)cc1 | -2.2 | 2510 mM (≈ 700 mg/mL) |
| O=C(O)CCCCc1ccccc1 | 2.94 |  |
| CCCCc1oc(C)cc(=O)c1O | 1.92 |  |
| Cc1ccc(O[Si]23OCCN(CCO2)CCO3)cc1 | 0.08 |  |
| CCn1cc(C(=O)O)c(=O)c2cc(F)c(N3CCNC(C)C3)cc21 (centres undefined) | 0.34 |  |
| CCCCCCC | 4.66 |  |
| CC(=O)NC(C)C(=O)NC(CCC(=O)O)C(=O)NC(C)(C)C (stereo not drawn) (Ac-Ala-Glu-NHtBu; configuration not given here) | -0.67 |  |
| N#Cc1cc(-c2ccncc2)cnc1N1CCCC1 | 2.95 |  |
| CC1=CCC(C(C)C)=CC1 | 4.5 |  |
| CC(C)=CC1C(C(=O)OCc2coc(Cc3ccccc3)c2)C1(C)C (centres undefined) | 6.14 |  |
| O=C(O)c1cccnc1Nc1cccc(C(F)(F)F)c1 | 4.43 |  |
| CC1=CC(=O)C(C)=C(C)C1=O | 1.82 |  |
| O=c1cc(CO)occ1O | -0.64 |  |
| ClC1(Cl)C2(Cl)C3(Cl)C4(Cl)C(Cl)(Cl)C5(Cl)C3(Cl)C1(Cl)C5(Cl)C24Cl (centres undefined) | 6.89 |  |
| CC(=O)OC(c1ccc(Cl)c(Cl)c1)C(Cl)(Cl)Cl (centres undefined) | 4.92 |  |
| NS(=O)(=O)c1nn2c(=Nc3ccc(O)cc3)snc2s1 | 1.89 |  |
| Nc1cc(Cl)c(S(N)(=O)=O)cc1S(N)(=O)=O | -0.41 |  |
| N#CCCCC#N | -0.72 |  |
| N#CC(C#N)=Cc1ccc(Br)o1 | 2.16 |  |
| ClC1=C(Cl)C2(Cl)C(Cl)(Cl)C3CC(Cl)C1C3C2(Cl)Cl (centres undefined) | 6.09 |  |
| Brc1cccc(O[Si]23OCCN(CCO2)CCO3)c1 | 0.26 |  |
| Clc1cc(Cl)c(-c2cc(Cl)c(Cl)cc2Cl)cc1Cl | 6.34 |  |
| CC(C)CC(=O)Oc1ccccc1 | 3.18 |  |
| CC(C)NCC(O)c1ccc(NS(C)(=O)=O)cc1 (centres undefined) | 0.24 |  |
| CC(=O)N[C@@H](C)C(=O)N[C@H](C(N)=O)C(C)C (Ac-Ala-Val-NH2) | -1.13 |  |
| OCc1cc(Cl)cc(Cl)c1 | 2.9 |  |

— the OPERA property sets (Mansouri et al. 2018)
